This is an account of results in patent publication US11447467B2, “Compounds for the degradation of STK4 and treatment of hematologic malignancies” (DANA-FARBER CANCER INSTITUTE, INC., priority 2017, dated 2022).

For data set [1], the system named is Peripheral blood mononuclear cells (PBMCs) from healthy volunteer. Put plainly: MTT cell growth assay, peripheral blood mononuclear cells. Format: cell-based, human. To be noted: PBMCs from healthy volunteer vs MM.1S cells, 48 h. The method, then:
(§1) Dexamethasone-sensitive MM.1S human MM cell line were kindly provided by Dr. Steven Rosen (Northwestern University, Chicago, Ill., United States). Creblon stable knockout MM.1S cells were established in our laboratory using lentiviral CRBN shRNA system. The cell lines were routinely tested for Mycoplasma, and genotyped with two different methods. Peripheral blood mononuclear cells were obtained from healthy volunteer by Ficoll-Paque centriguation. All MM cell lines and PBMCs were cultured in RPMI-1640 media (EuroClone, Pero, Italy) containing 10% fetal bovine serum (FBS, GIBCO, Life technologies, Carlsbad, Calif., United States), and a mix of penicillin and streptomycin to 1% from EuroClone (ECB3001).
MM.1S and CRBN-knockout MM.1S cells were counted and diluted to a final concentration of 400,000 cells/mL. The cell were plated in 96-well plates and mixed with an equal volume of culture media containing DMSO or increasing concentration of a compound of the present application diluted in DMSO (the final DMSO concentration is equal between all tested samples), using a STARlet Robot (Hamiltonrobotics, Reno, Nev., United States). Cells with increasing concentration of compound of the present application and DMSO were harvested at different time points (24 hrs to 72 hrs). […] Absorbance was read at 570/630 nm.
For orientation: Tetrazolium dyes change colour on reduction, which living cells bring about.

The test system of the next data set is MM.1S cells. Put plainly: MTT cell growth assay, MM.1S cells. To be noted: 72 h; for MM cell growth inhibition (FIG. 10): 0.2-20 μM; for potency in inhibiting MM cell growth as compared to lenalidomide (FIG. 15): comparator lenalidomide (Len). Format: cell-based, human. The method, then: as §1
(§2) MM.1S and CRBN-knockout MM.1S cells were counted and diluted to a final concentration of 400,000 cells/mL. The cell were plated in 96-well plates and mixed with an equal volume of culture media containing DMSO or increasing concentration of a compound of the present application diluted in DMSO (the final DMSO concentration is equal between all tested samples), using a STARlet Robot (Hamiltonrobotics, Reno, Nev., United States). Cells with increasing concentration of compound of the present application and DMSO were harvested at different time points (24 hrs to 72 hrs). For assessment of celll growth MTT assay, the 3-[4,5 dimethylthiazol-2-yl]-2,5 diphenyltetrazolium bromide-MTT (Sigma-Aldrich, St. Louis, Mo., Unites States) colorimetric assay was used. At the various time points (24-72 hrs), 10 μL of 5 mg/mL MTT were added to cells. After 4 hrs incubation at 37° C., medium was discarded and 100 μL MTT stop solution (Isopropanol with 1 N HCl) was used to dissolve MTT metabolic products. Absorbance was read at 570/630 nm.

The subject of data set [2] is CRBN-knockout MM.1S cells. Put plainly: MTT cell growth assay, CRBN-knockout MM.1S cells. It is filed as cell-based, human. The following applies: for cytotoxicity in CRBN-knockout cells (FIG. 11): 0.2-20 μM, 72 h; for cytotoxicity in CRBN-knockout cells (FIG. 5): parental or CRBN-knockout MM.1S cells, 24 h, 0.1-10 μM, MTT. The method, then:
as §1, §2

The subject of data set [3] is MM.1S cells resistant to lenalidomide (Len-R #1). Put plainly: MTT cell growth assay, lenalidomide-resistant MM.1S cells. Format: cell-based, human. The following applies: Len-R #1 MM.1S cells, 0.2-20 μM, 72 h.
The next data set concerns the target T1, STK4 (Homo sapiens, UniProt Q13043).
T1 construct: endogenous in cells; host or cells: MM.1S and CRBN-knockout MM.1S cells
T1 sequence (Q13043 1-487): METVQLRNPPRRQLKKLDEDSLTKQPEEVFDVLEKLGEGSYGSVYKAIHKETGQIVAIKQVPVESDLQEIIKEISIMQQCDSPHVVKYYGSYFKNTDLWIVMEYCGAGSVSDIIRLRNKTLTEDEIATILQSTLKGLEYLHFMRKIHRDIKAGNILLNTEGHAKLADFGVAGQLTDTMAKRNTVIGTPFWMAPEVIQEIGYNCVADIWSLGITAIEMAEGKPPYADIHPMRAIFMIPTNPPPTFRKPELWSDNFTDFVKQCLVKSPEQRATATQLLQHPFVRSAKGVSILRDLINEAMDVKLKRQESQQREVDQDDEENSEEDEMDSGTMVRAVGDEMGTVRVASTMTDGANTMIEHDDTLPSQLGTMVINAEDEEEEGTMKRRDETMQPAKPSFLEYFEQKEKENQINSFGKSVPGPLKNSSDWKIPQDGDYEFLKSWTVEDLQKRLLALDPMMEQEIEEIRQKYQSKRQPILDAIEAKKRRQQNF
Put plainly: Western blotting of STK4 in whole cell lysates of MM.1S cells (parental or CRBN-knockout). Format: cell-based. To be noted: for degradation of STK4 in cereblon-knockout cells (FIG. 8): CRBN-K.O. vs parental MM.1S cells; for downregulation of STK4 in MM.1S cells (FIG. 7): 0.6-20 μM; for degradation of STK4 in the presence of MLN4924 (FIG. 9): compound 10 μM, NEDD8 inhibitor MLN4924 1 μM; for downregulation of STK4 over time (FIG. 3B): 10 μM; for downregulation of STK4 in MM.1S cells (FIG. 1): immunoblotting anti-STK4/anti-GAPDH. From the text:
MM.1S, KMS20 and H929 cells are counted, diluted and plated. Cells are then […] with DMSO or different concentration of a compound of the present application for 6 hrs, 24 hrs or 48 hrs. MM cells are then collected and centrifuged at RT and the pellets are re-suspended in lysis buffer. Cell lysates are subjected to sodium dodecyl sulfate-polyacrylamide gel electrophoresis SDS-PAGE, transferred to nitrocellulose membranes, and immunoblotted with different antibodies.
MM.1S and CRBN knockout MM.1S cells were counted, diluted and plated in six-well plates to a final concentration of 500,000 cells/well. Cells were then harvested with DMSO or different concentration of a compound of the present application (4 h-24 h). MM cells were then collected and centrifuged for 5 min, 1300 rpm at RT. The pellets were re-suspended in cell lysis buffer (20 mM Tris-HCl (pH 7.5), 150 mM NaCl, 1 mM Na2EDTA, 1 mM EGTA, 1% Triton, 2.5 mM sodium pyrophosphate, 1 mM beta-glycerophosphate, 1 mM Na3VO4, 1 μg/ml leupeptin. Cell lysates were subjected to sodium dodecyl sulfate-polyacrylamide gel electrophoresis SDS-PAGE, transferred to nitrocellulose membranes, and immunoblotted with different antibodies: MST1 (STK4) (#14946), K48-linkage Specific Polyubiquitin (#8081) and GAPDH (#5174) from Cell Signaling, Beverly, Mass., United States: IKZF1 (AF4984) (from R&D Systems, Mineapolis, Minn., United States). All antibodies were diluted 1:1000, except for GAPDH antibody (1:4,000 dilution).
Background: In western blotting, separated proteins are transferred to a membrane and probed.

Where [4] appears, read: MM.1S cells, 24 h, indicated concentrations.

`Nc1ncc(-c2ccc(S(=O)(=O)Nc3ccc(NC(=O)CCOCCOCCOCCOCCOCCNc4cccc5c4C(=O)N(C4CCC(=O)NC4=O)C5=O)cc3)cc2F)cc1-c1ccc2c(c1)CCNC2=O` (centres unmarked) [Compound I-7, N-(4-((4-(6-amino-5-(1-oxo-1,2,3,4-tetrahydroisoquinolin-6-yl)pyridin-3-yl)-3-fluorophenyl)sulfonamido)phenyl)-1-((2-(2,6-dioxopiperidin-3-yl)-1,3-dioxoisoindolin-4-yl)amino)-3,6,9,12,15-pentaoxaoctadecan-18-amide]: the “cytotoxicity to peripheral blood mononuclear cells (FIG. 13A/13B)” value in data set [1] is recorded as “absence of cytotoxic”. Moreover, in the data set on MM.1S cells, the “MM cell growth inhibition (FIG. 10)” value is recorded as “potent MM cell growth inhibition” and the “potency in inhibiting MM cell growth as compared to lenalidomide (FIG. 15)” value was “greater potency”. Further, the “cytotoxicity in CRBN-knockout cells (FIG. 11)” value in data set [2] is given as “decrease in cytotoxicity”. For the same molecule, the “cytotoxicity in acquired lenalidomide-resistant cells (FIG. 12B)” value in data set [3] is “decrease in cytotoxicity”. In addition, the “degradation of STK4 in cereblon-knockout cells (FIG. 8)” value at STK4 (24 h) was “absence of degradation of STK4”. In addition, on STK4 (MM.1S cells, 24 h), the “downregulation of STK4 in MM.1S cells (FIG. 7)” value is listed as “dose dependent downregulation of STK4” and the “degradation of STK4 in the presence of MLN4924 (FIG. 9)” value is given as “absence of degradation of STK4”.
Consider `Nc1ncc(-c2ccc(S(=O)(=O)Nc3cccc(NC(=O)CCOCCOCCOCCOCCOCCNc4cccc5c4C(=O)N(C4CCC(=O)NC4=O)C5=O)c3)cc2F)cc1-c1ccc2c(c1)CCNC2=O` (centres unmarked) [Compound I-10], for which the “cytotoxicity to peripheral blood mononuclear cells (FIG. 13A/13B)” value in data set [1] is reported as “absence of cytotoxic”. Further, in the data set on MM.1S cells, the “MM cell growth inhibition (FIG. 10)” value was “potent MM cell growth inhibition” and the “potency in inhibiting MM cell growth as compared to lenalidomide (FIG. 15)” value is on record as “greater potency”. Moreover, in data set [2], the “cytotoxicity in CRBN-knockout cells (FIG. 11)” value is on record as “decrease in cytotoxicity” and the “cytotoxicity in CRBN-knockout cells (FIG. 5)” value is “decrease in cytotoxicity”. Further, the “cytotoxicity in acquired lenalidomide-resistant cells (FIG. 12B)” value in data set [3] is “decrease in cytotoxicity”. On STK4 (24 h), the “degradation of STK4 in cereblon-knockout cells (FIG. 8)” value is “absence of degradation of STK4”. Besides, the “downregulation of STK4 over time (FIG. 3B)” value at STK4 (MM.1S cells, 4-24 h) is “downregulation of STK4 by compounds of the application in a time-dependent fashion”. On STK4 (MM.1S cells, 24 h), the “downregulation of STK4 in MM.1S cells (FIG. 7)” value is “dose dependent downregulation of STK4” and the “degradation of STK4 in the presence of MLN4924 (FIG. 9)” value is listed as “absence of degradation of STK4”. On STK4 (setting [4]), the “downregulation of STK4 in MM.1S cells (FIG. 1)” value (from here on “downregulation … (FIG. 1)”) is reported as “dose dependent downregulation of STK4”.
As to `Nc1ncc(-c2ccc(S(=O)(=O)Nc3cccc(NC(=O)CCOCCOCCOCCOCCOCCOc4cccc5c4C(=O)N(C4CCC(=O)NC4=O)C5=O)c3)cc2F)cc1-c1ccc2c(c1)CCNC2=O` (centres unmarked) [Compound I-17], the “downregulation of STK4 over time (FIG. 3B)” value at STK4 (MM.1S cells, 4-24 h) was “downregulation of STK4 by compounds of the application in a time-dependent fashion”.
Regarding `Nc1ncc(-c2ccc(S(=O)(=O)N(CCCNC(=O)CCOCCOCCOCCOCCOCCNc3cccc4c3C(=O)N(C3CCC(=O)NC3=O)C4=O)C3CC3)cc2F)cc1-c1ccc2c(c1)CCNC2=O` (centres unmarked) [Compound I-19, N-(3-((4-(6-amino-5-(1-oxo-1,2,3,4-tetrahydroisoquinolin-6-yl)pyridin-3-yl)-N-cyclopropyl-3-fluorophenyl)sulfonamido)propyl)-1-((2-(2,6-dioxopiperidin-3-yl)-1,3-dioxoisoindolin-4-yl)amino)-3,6,9,12,15-pentaoxaoctadecan-18-amide], in data set [2], the “cytotoxicity in CRBN-knockout cells (FIG. 5)” value is “decrease in cytotoxicity”. The “downregulation of STK4 over time (FIG. 3A)” value at STK4 (MM.1S cells, 2.5 μM, 4-24 h) is “downregulation of STK4 by compounds of the application in a time-dependent fashion”. The “downregulation of STK4 in MM.1S cells (FIG. 2)” value on STK4 (MM.1S cells, 24 h, 0.15-5 μM, Western blotting) is listed as “dose dependent downregulation of STK4”. In addition, the “downregulation … (FIG. 1)” value at STK4 (setting [4]) is listed as “dose dependent downregulation of STK4”. The “degradation of STK4 in cereblon-knockout cells (FIG. 4)” value on STK4 (cereblon (CRBN)-knockout vs parental MM.1S cells, 24 h, indicated concentrations) is reported as “absence of degradation of STK4”.
Take `Nc1ncc(-c2ccc(S(=O)(=O)NC3CCCN(C(=O)CCOCCOCCOCCOCCOCCNc4cccc5c4C(=O)N(C4CCC(=O)NC4=O)C5=O)C3)cc2F)cc1-c1ccc2c(c1)CCNC2=O` (centres unmarked) [Compound I-20, 4-(6-amino-5-(1-oxo-1,2,3,4-tetrahydroisoquinolin-1-yl)pyridin-3-yl)-N-(1-(1-((2-(2,6-dioxopiperidin-3-yl)-1,3-dioxoisoindolin-4-yl)amino)-3,6,9,12,15-pentaoxaoctadecan-18-oyl)piperidin-3-yl)-3-fluorobenzenesulfonamide]: the “downregulation … (FIG. 1)” value at STK4 (setting [4]) was “dose dependent downregulation of STK4”.
